As a reminder, the EC50 is the concentration that produces a half-maximal response.

Each structure is given as a SMILES string.

For this test, the target named is Sphingosine 1-phosphate receptor 4 (Homo sapiens) (UniProt O95977). Put plainly: potency of S1P4 activators – cell-based, fluorescence, synthesized compounds, late-stage follow-up (AID 463107). The note with it: S1P4 cell-based agonist assay.
Chain of Sphingosine 1-phosphate receptor 4 (Homo sapiens) (O95977 whole entry, looked up): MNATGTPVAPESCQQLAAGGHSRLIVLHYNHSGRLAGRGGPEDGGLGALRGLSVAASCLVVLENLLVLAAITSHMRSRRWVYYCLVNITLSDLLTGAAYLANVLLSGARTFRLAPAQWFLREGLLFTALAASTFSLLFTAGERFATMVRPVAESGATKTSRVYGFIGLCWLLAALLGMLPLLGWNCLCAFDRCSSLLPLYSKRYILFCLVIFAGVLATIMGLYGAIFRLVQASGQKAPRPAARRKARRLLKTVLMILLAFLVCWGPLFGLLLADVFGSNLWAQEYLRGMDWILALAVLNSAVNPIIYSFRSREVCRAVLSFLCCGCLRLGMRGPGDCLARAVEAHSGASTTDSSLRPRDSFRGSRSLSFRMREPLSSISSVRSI
For the compound `Cc1ccc(OCCOc2ccc(C)nc2[N+](=O)[O-])c(C)c1`, the EC50 is 7200 nM.

Consider `Cc1ccc(OCCOc2c(Cl)cc(Cl)cc2Cl)c([N+](=O)[O-])n1`, for which the EC50 was 570 nM.

In the case of `COc1ccc(OCCOc2ccc(C)nc2[N+](=O)[O-])c(Cl)c1`, the EC50 was 3900 nM.

On to `Cc1ccc(OCCOc2ccc(Cl)cc2Cl)c([N+](=O)[O-])n1`, for which the EC50 is 162 nM.

On to `Clc1ccc(OCCOc2ccc(Br)nc2Br)c(Cl)c1`, for which the EC50 is 46.3 nM.

Take `Cc1ccc(OCCOc2ccc(Cl)cc2Cl)c(Br)n1`: the EC50 is 52 nM.

On to `FCc1ccc(OCCOc2ccc(Cl)cc2Cl)c(Cl)n1`, for which the EC50 was 45.5 nM.
